≈ marks a conversion by molar mass, not a printed value. Calls of active or inactive are those of the source. No cut-off for these calls is given here.
Columns and labels:
A549 = test: Cytotoxicity against human A549 cells by MTT assay; format: functional; details: read-out: ED50 (the source's name)
HT-29 = test: Cytotoxicity against human HT-29 cells by MTT assay; format: functional; details: read-out: ED50 (the source's name)
P388 = test: Cytotoxicity against mouse P388 cells by MTT assay; format: functional; details: read-out: ED50 (the source's name)
Human betaherpesvirus 5 = test: Antiviral activity against Human cytomegalovirus at 50 ug/ml; format: functional, organism-based

SMILES: CC(=O)CC1C=C(C)C(=O)O1 (stereo not drawn)
- EC50 (A549): 56 µg/mL (≈ 363 µM)
- EC50 (HT-29): 58 µg/mL (≈ 376 µM)
- EC50 (P388): 52 µg/mL (≈ 337 µM)
- Activity (Human betaherpesvirus 5): inactive

SMILES: CC(=O)CC1OC(=O)C=C1C (stereo not drawn)
- EC50 (A549): 53 µg/mL (≈ 344 µM)
- EC50 (HT-29): 51 µg/mL (≈ 331 µM)
- EC50 (P388): 56 µg/mL (≈ 363 µM)
- Activity (Human betaherpesvirus 5): inactive
